Reference: patent US20240150293A1, “SPIROCYCLOHEXANE DERIVATIVES, PHARMACEUTICAL COMPOSITIONS CONTAINING THEM AND THEIR USES AS ANTI-APOPTOTIC INHIBITORS” (LES LABORATOIRES SERVIER, priority 2021, published 2024)
Where two headings read alike, the source gives them in different places.

Assays:
[1] = test system: AMO-1 multiple myeloma xenografts; assay: Anti-tumor activity in vivo (Example D); design: species or system SCID mice
Method: The anti-tumor activity of the compounds of the invention was evaluated using AMO-1 multiple myeloma xenografts.
1×10^7 cells were subcutaneously grafted into immunosuppressed SCID mice. 7-10 days later, when the tumor mass had reached an average volume of about 150 mm^3, mice were treated with the various compounds once a week for 2 weeks (per os, HEC 1%/Tween 80 99:1). Tumor size was measured three times per week using electronic calipers.
At the end of the treatment cycle (d9), tumor growth inhibition (TGI) was calculated using the formula: […]
wherein DTV (Delta Tumor Volume) at Dx was calculated as follows: […]
(Tumor Volume at Dx)−(Tumor Volume at Randomization).

[2] = test system: H929 multiple myeloma tumor line; assay: In vitro cytotoxicity, MTT assay (Example B, Method A); format: cell-based; settings: Homo sapiens, NCI-H929, 48 h, H929 cells, 48 hours exposure, read-out: C50
Method: The cytotoxicity studies were carried out on the H929 multiple myeloma tumor line.
The cells are distributed onto microplates and exposed to the test compounds for 48 hours. The cell viability is then quantified by a colorimetric assay, the Microculture Tetrazolium Assay (Carmichael et al, Cancer Res. 1987, 47, 939-942).
The results are expressed in C50 which means concentration corresponding to […] of effect/inhibition.

[3] = test system: AMO-1 multiple myeloma xenograft; assay: Quantification of the cleaved form of PARP in vivo, per os (Example C); design: species or system SCID mice; settings: single dose per os, tumors recovered 16 hours after dosing
Method: (§1) The ability of the compounds of the invention to induce apoptosis was evaluated in vivo using the AMO-1 multiple myeloma xenograft.
(§2) 1×10^7 cells were subcutaneously grafted into immunosuppressed SCID mice. 12-14 days later, when tumors had reached the appropriate volume, mice (3 per group) were treated once with the various compounds (per os, HEC 1%/Tween 80 99:1). Tumor samples were recovered 16 hours after dosing and lysed. Cleared lysates were used for cleaved PARP quantification (as a marker of apoptosis induction) using the Meso Scale Discovery (MSD) Elisa platform test. Results are expressed as the ratio between cleaved PARP in treated mice over control mice.

[4] = biological target: Cy5-labelled Mcl1 (amino acids 171-321) C286S protein (UniProtKB Q07820) (Homo sapiens (Human), UniProt Q07820, C286S); assay: Inhibition of Mcl-1 by the fluorescence quenching assay (Example A, Method B); format: binding
Sequence of Cy5-labelled Mcl1 (amino acids 171-321) C286S protein (Q07820 171-321 C286S): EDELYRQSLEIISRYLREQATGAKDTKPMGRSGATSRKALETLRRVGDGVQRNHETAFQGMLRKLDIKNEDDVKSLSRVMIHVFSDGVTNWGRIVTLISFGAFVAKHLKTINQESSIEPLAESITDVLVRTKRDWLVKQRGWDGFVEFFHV
Method in brief: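 Cy5-labelled Mcl1 171-321 C286S (1 nM) quenched by TQ5WS-labelled PUMA peptide (10, 20 or 400 nM); displacement raises fluorescence (Ex 620/Em 680 nm). Buffer 10 mM HEPES, 150 mM NaCl, 0.05% Tween 20, pH 7.4, 5% DMSO; 2 h at room temperature, 11-point curves, IC50 converted to Ki (cKi/eKi).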

[5] = test system: AMO-1 multiple myeloma xenograft; assay: Quantification of the cleaved form of PARP in vivo, IV (Example E); design: species or system SCID mice; settings: single dose
Method: as §1
as §2, with “(IV).” for “(per os, HEC 1%/Tween 80 99:1).”, “recovered 6 or” for “recovered”

NCI-H929 cell lines = assay: In vitro cytotoxicity, CellTiter-Glo (CTG) assay (Example B, Method B); format: cell-based; settings: Homo sapiens, NCI-H929, 48 h, NCI-H929 cells, 48 h incubation, read-out: C50
Method in brief: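 NCI-H929 cells exposed to an 11-point compound series from 10 mM DMSO stocks (top final 30 μM) for 48 h at 37° C., 5% CO2. Viability measured as ATP by CellTiter-Glo luminescence; C50 is the concentration giving 50% cellular viability.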

[6] = 60 mpk per os once a week for 2 weeks
[7] = 120 mpk per os once a week for 2 weeks
[8] = 30 mpk per os once a week for 2 weeks

Row | SMILES | % TGI (d9) [1, 6] [%] | % TGI (d9) [1, 7] [%] | IC50 [2] [nM] | Cleaved PARP (fold to control) ([3]; 120 mpk) | Ki ([4]; Ki determined from IC50) [nM] | % TGI (d9) [1, 8] [%] | Cleaved PARP (fold to control) ([5]; 15 mpk IV, time-point 6 h) | Cleaved PARP (fold to control) ([5]; 30 mpk IV, time-point 6 h) | Cleaved PARP (fold to control) ([5]; 30 mpk IV, time-point 16 h) | Ki [4] [nM] | IC50 (NCI-H929 cell lines) [nM] | Cleaved PARP (fold to control) ([3]; 30 mpk) | Cleaved PARP (fold to control) ([3]; 60 mpk) | Cleaved PARP (fold to control) ([5]; 7.5 mpk IV, time-point 6 h)
1 | C[C@@H](COc1ccnc2c1[C@H](C)CCC2)CN1Cc2cc(F)ccc2[C@]12CC[C@@](Nc1ccc(F)c(Cl)c1)(C(=O)O)CC2 [Example 42, (1s,4S)-4-(3-chloro-4-fluoroanilino)-5′-fluoro-2′-[(2R)-2-methyl-3-{[(5R)-5-methyl-5,6,7,8-tetrahydroquinolin-4-yl]oxy}propyl]-2′,3′-dihydrospiro[cyclohexane-1,1′-isoindole]-4-carboxylic acid] | 25.8 | 114.1 | 33.9 | 5 fold to control | 0.294 | – | – | – | – | – | – | – | – | –
2 | CCOc1ccc2c(c1)[C@]1(CC[C@@](Nc3cccc(Cl)c3)(C(=O)O)CC1)[C@@H](C[C@@H](C)COc1ccnc3c1[C@H](C)CCC3)C2 [Example 784, (1r,2′S,4S)-4-(3-chloroanilino)-6′-ethoxy-2′-[(2R)-2-methyl-3-{[(5R)-5-methyl-5,6,7,8-tetrahydroquinolin-4-yl]oxy}propyl]-2′,3′-dihydrospiro[cyclohexane-1,1′-indene]-4-carboxylic acid] | 112 | – | – | – | – | 103.6 | 227.5 fold to control | 174.2 fold to control | 129.9 fold to control | 0.0801 | 106 | – | – | –
3 | COCc1ccc2c(c1)[C@]1(CC[C@@](Nc3cccc(Cl)c3)(C(=O)O)CC1)[C@@H](C[C@@H](C)COc1ccnc3c1[C@H](C)CCC3)C2 [Example 919, (1r,2′S,4S)-4-(3-chloroanilino)-6′-(methoxymethyl)-2′-[(2R)-2-methyl-3-{[(5R)-5-methyl-5,6,7,8-tetrahydroquinolin-4-yl]oxy}propyl]-2′,3′-dihydrospiro[cyclohexane-1,1′-indene]-4-carboxylic acid] | 121 | – | – | – | – | – | 185.6 fold to control | 199.9 fold to control | 69.7 fold to control | 0.0267 | 38.9 | 6.7 fold to control | 9.7 fold to control | –
4 | COc1cc2c(cc1Cl)C[C@H](C[C@@H](C)COc1ccnc3c1[C@H](C)CCC3)[C@]21CC[C@](Nc2cccc(Cl)c2)(C(=O)O)CC1 [Example 815, (1r,2′S,4S)-5′-chloro-4-(3-chloroanilino)-6′-methoxy-2′-[(2R)-2-methyl-3-{[(5R)-5-methyl-5,6,7,8-tetrahydroquinolin-4-yl]oxy}propyl]-2′,3′-dihydrospiro[cyclohexane-1,1′-indene]-4-carboxylic acid] | 18.7 | 66.8 | – | 4.6 fold to control | – | – | – | – | – | 0.251 | 87.7 | – | 2.3 fold to control | –
5 | Cc1cc2c(cc1C)[C@]1(CC[C@@](Nc3cccc(Cl)c3)(C(=O)O)CC1)[C@@H](C[C@@H](C)COc1ccnc3c1[C@H](C)CCC3)C2 [Example 854, (1r,2′S,4S)-4-(3-chloroanilino)-5′,6′-dimethyl-2′-[(2R)-2-methyl-3-{[(5R)-5-methyl-5,6,7,8-tetrahydroquinolin-4-yl]oxy}propyl]-2′,3′-dihydrospiro[cyclohexane-1,1′-indene]-4-carboxylic acid] | 95.2 | 111.8 | – | 29.1 fold to control | – | 32 | – | – | – | 0.455 | 147 | 6.9 fold to control | 26.4 fold to control | –
6 | Cc1c(Cl)cccc1N[C@]1(C(=O)O)CC[C@]2(CC1)c1cc3c(cc1C[C@@H]2C[C@@H](C)COc1ccnc2c1[C@H](C)CCC2)OCO3 [Example 847, (1r,4S,6′S)-4-(3-chloro-2-methylanilino)-6′-[(2R)-2-methyl-3-{[(5R)-5-methyl-5,6,7,8-tetrahydroquinolin-4-yl]oxy}propyl]-6′,7′-dihydro-2′H-spiro[cyclohexane-1,5′-indeno[5,6-d][1,3]dioxole]-4-carboxylic acid] | – | – | – | – | – | – | 215 fold to control | – | – | 0.0847 | 64.3 | – | – | 185.9 fold to control
7 | COc1ccc2c(c1)[C@]1(CC[C@@](Nc3cccc(Cl)c3)(C(=O)O)CC1)[C@@H](C[C@@H](C)COc1ccnc3c1[C@H](C)CCC3)C2 [Example 781, (1r,2′S,4S)-4-(3-chloroanilino)-6′-methoxy-2′-[(2R)-2-methyl-3-{[(5R)-5-methyl-5,6,7,8-tetrahydroquinolin-4-yl]oxy}propyl]-2′,3′-dihydrospiro[cyclohexane-1,1′-indene]-4-carboxylic acid] | 107.8 | – | – | – | – | 76.4 | – | – | – | 0.234 | 82.3 | 11.6 fold to control | 4.5 fold to control | –
8 | C[C@@H](COc1ccnc2c1[C@H](C)CCC2)C[C@H]1Cc2cc3c(cc2[C@]12CC[C@@](Nc1ccc(F)c(Cl)c1)(C(=O)O)CC2)OCO3 [Example 845, (1r,4S,6′S)-4-(3-chloro-4-fluoroanilino)-6′-[(2R)-2-methyl-3-{[(5R)-5-methyl-5,6,7,8-tetrahydroquinolin-4-yl]oxy}propyl]-6′,7′-dihydro-2′H-spiro[cyclohexane-1,5′-indeno[5,6-d][1,3]dioxole]-4-carboxylic acid] | 128.3 | – | – | – | – | 88.2 | 188.7 fold to control | 158.2 fold to control | 116.4 fold to control | 0.0736 | 38.3 | – | – | –
9 | C[C@@H](COc1ccnc2c1[C@H](C)CCC2)C[C@H]1Cc2cc3c(cc2[C@]12CC[C@@](Nc1cccc(Cl)c1)(C(=O)O)CC2)OCCO3 [Example 838, (1r,4S,7′S)-4-(3-chloroanilino)-7′-[(2R)-2-methyl-3-{[(5R)-5-methyl-5,6,7,8-tetrahydroquinolin-4-yl]oxy}propyl]-2′,3′,7′,8′-tetrahydrospiro[cyclohexane-1,6′-indeno[5,6-b][1,4]dioxine]-4-carboxylic acid] | 129.2 | – | – | – | – | – | – | – | – | 0.0337 | 21.6 | 15 fold to control | 7.8 fold to control | –
10 | COCCOc1ccc2c(c1)[C@]1(CC[C@@](Nc3cccc(Cl)c3)(C(=O)O)CC1)[C@@H](C[C@@H](C)COc1ccnc3c1[C@H](C)CCC3)C2 [Example 794, (1r,2′S,4S)-4-(3-chloroanilino)-6′-(2-methoxyethoxy)-2′-[(2R)-2-methyl-3-{[(5R)-5-methyl-5,6,7,8-tetrahydroquinolin-4-yl]oxy}propyl]-2′,3′-dihydrospiro[cyclohexane-1,1′-indene]-4-carboxylic acid] | 70.2 | 51.5 | – | 12.1 fold to control | – | – | – | – | – | 0.213 | 44.5 | – | 6.8 fold to control | –
